The values below come from patent US20160235710A1, “COMPOSITION FOR TREATING OR PREVENTING ERECTILE DYSFUNCTION COMPRISING LDD175 AS ACTIVE INGREDIENT” (ANYGEN, INC., priority 2015, published 2016).

In one data set the test system is BP and heart rate. The conditions noted are these: cited from earlier work.
The next data set has as its target T1, BKCa channel (Homo sapiens, UniProt Q12791).
T1 construct: Homogeneous explant cell cultures of human corporal smooth muscle (CSM) cells were prepared; endogenous in cells; host or cells: primary explant cultures of human corporal smooth muscle (CSM) cells from erectile dysfunction patients
The data set is described as follows: Whole-cell patch-clamp recording of BKCa currents in cultured human CSM cells. It is filed as cell-based. The conditions noted are these: for activation of outward rectifying K+ currents (whole-cell), increase vs. control: at +60 mV. How it is done:
Human corporal tissues were obtained from the corpus cavernosa of patients with organic erectile dysfunction undergoing implantation of penile prostheses. Homogeneous explant cell cultures of human corporal smooth muscle (CSM) cells were prepared as follows (Palmer et al., 1994; Sung et al., 2011). Radial sections of approximately 3×3×10 mm were excised from the mid-penile shafts of the respective resected sample. These samples were tissues including smooth muscles, endothelium, and connective tissues, with occasional nerve fibers. The tissues were washed, cut into 1-2 mm pieces, and placed in tissue culture dishes filled with Dulbecco's modified Eagle's medium (DMEM, Gibco, Carlsbad, Calif., USA) supplemented with 10% fetal bovine serum and antibiotics (100 units/mL penicillin, streptomycin; Gibco), under 5% O2 and 5% CO2. After the explants were attached to the substrate (usually 1-2 days), additional medium was added. The smooth muscle cells were observed migrating from the explants, and underwent division. The cells were subsequently detached via a trypsin/EDTA protocol to establish secondary cultures from the explants. These cultures were morphologically homogeneous. The cobblestone morphology, which is the characteristic of endothelial cells, and the flattened and spread-out shape, which is the characteristic of fibroblasts, were not observed. Cellular homogeneity was further verified by observing smooth muscle-specific α-actin and myosin immuno-responsiveness. While the cultures were maintained for four or more passages, all measured pharmacological and molecular properties were evaluated in the intact tissues that were maintained in the cultures, for example, cyclic adenosine monophosphate formation (Palmer et al., 1994), calcium mobilization (Zhao and Christ, 1995), expression or function of the gap junction protein, connexin (Brink et al., 1996), and K+ channel activity (Lee et al., 1999).
The Ca^2+-activated potassium channel (BKCa) was measured by using the conventional whole-cell patch-clamp technique (Sung et al., 2011). Patch electrodes were made from borosilicate glass capillary tubing (World Precision Instruments, Sarasota, Fla., USA), and had 2.5-5 MO resistance. The cell suspension was placed into a small chamber (0.6 ml) on the stage of an inverted microscope (TMD Diaphot, Nikon, Tokyo, Japan). The membrane currents in smooth muscle cells were recorded using a patch clamp amplifier (Axopatch-1 D, Axon Instruments, Foster City, Calif., USA). The liquid junction potential between the pipette solution and the bath solution was only about 3 mV, and thus uncorrected. In each experiment, whole-cell configuration was not achieved until the seal resistance became larger than 5 GO. The pCLAMP software (Axon Instruments) and Digidata-1322A (Axon Instruments) were used for data acquisition and application of command pulses. Membrane currents were measured during ramping, and filtered at 5 kHz (−3 dB frequency). The current signals were filtered at 5 kHz, digitized, and analyzed on a personal computer using pCLAMP and Origin software (Microcal Software, Northampton, Mass., USA). The standard bath solution was prepared to contain 135 mmol NaCl, 5 mmol KCl, 10 mmol HEPES, 1.8 mmol CaCl2, 1 mmol MgCl2, and 5 mmol glucose, per liter, at pH 7.4 adjusted with NaOH. The pipette (internal) solution was prepared to contain, per liter, 140 mmol KCl, 10 mmol HEPES, 5 mmol K2ATP, 2 mmol MgCl2, 5 mmol ethyleneglycol-bis-[2-aminoethyl ether]-N,N′-tetraacetic acid (EGTA), and 0.5 mmol GTP, at pH 7.2 adjusted with KOH. The Ca^2+-free concentration in the pipette solution was adjusted to 3.15 nM by adding an appropriate amount of CaCl2, determined using the Max Chelator Sliders software (C. Patton, Stanford University).

The subject of data set [1] is rat model with diabetic erectile dysfunction. The data set is described as follows: Diabetic erectile dysfunction rat model (streptozotocin), intracavernosal pressure. The format is in vivo, Sprague-Dawley rats. The conditions noted are these: for maximal ICP/ABP ratio: 5 V. How it is done:
(§1) The erectile response was measured using Sprague-Dawley rats. The detailed methodology of measuring the erectile response has been described previously (Rehman et al., 1997). The 8-10 wk aged rats were anesthetized with intramuscular injection of Zoletil 100 mg/kg (Virbac, Carros, France), and placed on a thermally regulated surgical table. Systemic arterial blood pressure (ABP) was monitored via carotid artery cannulation (polyethylene-50 tubing). The prostate and bladder were exposed through a midline abdominal incision. The major pelvic ganglion, pelvic nerves, and cavernous nerve were identified as posterolateral to the prostate on each side. An electric stimulator with stainless steel bipolar hook electrodes was placed around the cavernous nerve for electrical stimulation. To monitor intracavernosal pressure (ICP), a 25-gauge cannula was filled with […], connected to polyethylene-50 tubing, and inserted into one side of the crura. Systemic arterial blood pressure (ABP) and intracavernosal pressure (ICP) were measured with a transducer connected to a PowerLab® (AD Instruments, Colorado Spring, Colo., USA), which is a computerized system for data acquisition. Real-time display and documentation of pressure were conducted with Chart™ 6 software. Sub-maximal electrical field stimulation (EFS) was used with 1 V, 2 Hz, 5 ms pulse width, and duration of 60 seconds. Sub-maximal electrical field stimulation was applied 10 min after a series of control (buffer solution alone), LDD175 (10 mg/kg), and udenafil (1 mg/kg) injections. At the end of sub-maximal stimulation, the full response was measured using the EFS of 6 V, 10 Hz, 5 ms pulse width, with duration of 60 seconds. Buffer solution, LDD175, and udenafil were administered at intervals of 30 min. The ratio of maximal ICP to mean arterial BP at the peak of the erectile response was calculated in order to control for variations in ABP.
The 8-wk aged male Sprague-Dawley rats were administered with an intraperitoneal injection of streptozotocin (65 mg/kg body weight) dissolved in 5 mM citric acid buffer (pH 4.5), thereby inducing insulin dependent diabetes mellitus (IDDM). Rats of the normal control were injected with only 5 mM citric acid buffer (pH 4.5) by the same method. On day 2 of breeding, the rats were fasted for 16 hours, and the blood was collected from the tail vein to conduct the blood glucose test. Only rats with a blood glucose level of 250 mg/de or higher were selected for a diabetes induced group.

Data set [2] relates to erectile function of rats. Briefly: In vivo cavernous nerve stimulation model, erectile response. Also on record: species or system Sprague-Dawley rats. Here is the method:
as §1

The test system of data set [3] is rabbit corporal smooth muscle (CSM) strip. The data set is described as follows: Organ bath relaxation of phenylephrine-pre-contracted rabbit corpus cavernosal strips. Also on record: species or system New Zealand white rabbits. The following applies: for relaxation, % of the phenylephrine (PE)-induced contraction: concentration-response; for % relaxation of the phenylephrine-induced contraction: synergy experiment. From the text: Sexually mature male New Zealand white rabbits (3.0±0.3 kg) were killed with an air embolism in the ear vein. The entire penis was then surgically excised, and then cleaned by removing the […] and urethra. Then, the corporal tissue was carefully dissected from the surrounding tunica. Four corpus cavernosal strips with approximately equal sizes (2×2×10 mm) were obtained from each penis.
Rabbit corpus cavernosal strips were separately prepared for organ-bath studies. Each corporal strip was mounted in a 10 ml-organ chamber filled with Krebs buffer (composition in mmol/l: 118.4 NaCl, 4.7 KCl, 2.5 CaCl2, 1.2 KH2PO4, 1.2 MgSO4, 24.9 NaHCO3, and 11.1 D-glucose), with one end fixed to a tissue holder and the other secured to a force transducer. The force transducer was connected to an appropriately calibrated four-channel polygraph (Power-Lab; AD Instruments, Sydney, NSW, Australia), in which the transducer output was recorded. The corpus cavernosal strips were kept in the organ bath with Krebs solution maintained at 36.5° C. by a thermo-regulated water circuit and by continuously bubbling with a mixture of 95% O2 and 5% CO2. Each corporal strip was stretched to an optimal isometric tension of 1.0 g and was equilibrated for 60 min. During the equilibration, the tissues were washed with fresh Krebs solution every 15 min, and the tension was adjusted if necessary.
The vasodilatory effect of LDD175 was studied by cumulative addition of the sample at concentrations ranging from 10^−7 to 10^−4 M to endothelium-intact strips and endothelium-denuded strips after pre-contraction with 10^−5 M phenylephrine (PE). The endothelial lining of the corpus cavernosum was removed by rubbing the strip between the thumb and index finger for 20 seconds and soaking the same in 0.3% solution of 3[(3-cholamidopropyl)-dimethylammonio]-l-propanesulphonate (CHAPS) for 10 seconds. It was confirmed whether the endothelium was functionally completely removed for all strips by pre-contracting the strips with 10^−5 M […] PE and then adding acetylcholine (10^−6 M) thereto. […] After the addition of IbTX, LDD175 was added to strips pre-contracted with PE. The relaxation effect of the PDE5 inhibitor (udenafil, 10^−6 and 10^−5 M) was also separately measured in the same manner, and compared to that of LDD175. The synergistic relaxation effect between 10^−5 M LDD175 and 10^−6 M udenafil was also investigated.

For the next data set, the system named is aortic rings of rats. The conditions noted are these: cited from earlier work.
The mark [4] stands for this setting: sub-maximal EFS, intravenous LDD175 10 mg/kg, n=8.

Values joined by “and” are separate entries in the source; they are usually repeats but may differ in a detail not shown here. Equal entries are not always repeated. Where two headings read alike, the source gives them in different places.

T1 sequence (Q12791 whole entry): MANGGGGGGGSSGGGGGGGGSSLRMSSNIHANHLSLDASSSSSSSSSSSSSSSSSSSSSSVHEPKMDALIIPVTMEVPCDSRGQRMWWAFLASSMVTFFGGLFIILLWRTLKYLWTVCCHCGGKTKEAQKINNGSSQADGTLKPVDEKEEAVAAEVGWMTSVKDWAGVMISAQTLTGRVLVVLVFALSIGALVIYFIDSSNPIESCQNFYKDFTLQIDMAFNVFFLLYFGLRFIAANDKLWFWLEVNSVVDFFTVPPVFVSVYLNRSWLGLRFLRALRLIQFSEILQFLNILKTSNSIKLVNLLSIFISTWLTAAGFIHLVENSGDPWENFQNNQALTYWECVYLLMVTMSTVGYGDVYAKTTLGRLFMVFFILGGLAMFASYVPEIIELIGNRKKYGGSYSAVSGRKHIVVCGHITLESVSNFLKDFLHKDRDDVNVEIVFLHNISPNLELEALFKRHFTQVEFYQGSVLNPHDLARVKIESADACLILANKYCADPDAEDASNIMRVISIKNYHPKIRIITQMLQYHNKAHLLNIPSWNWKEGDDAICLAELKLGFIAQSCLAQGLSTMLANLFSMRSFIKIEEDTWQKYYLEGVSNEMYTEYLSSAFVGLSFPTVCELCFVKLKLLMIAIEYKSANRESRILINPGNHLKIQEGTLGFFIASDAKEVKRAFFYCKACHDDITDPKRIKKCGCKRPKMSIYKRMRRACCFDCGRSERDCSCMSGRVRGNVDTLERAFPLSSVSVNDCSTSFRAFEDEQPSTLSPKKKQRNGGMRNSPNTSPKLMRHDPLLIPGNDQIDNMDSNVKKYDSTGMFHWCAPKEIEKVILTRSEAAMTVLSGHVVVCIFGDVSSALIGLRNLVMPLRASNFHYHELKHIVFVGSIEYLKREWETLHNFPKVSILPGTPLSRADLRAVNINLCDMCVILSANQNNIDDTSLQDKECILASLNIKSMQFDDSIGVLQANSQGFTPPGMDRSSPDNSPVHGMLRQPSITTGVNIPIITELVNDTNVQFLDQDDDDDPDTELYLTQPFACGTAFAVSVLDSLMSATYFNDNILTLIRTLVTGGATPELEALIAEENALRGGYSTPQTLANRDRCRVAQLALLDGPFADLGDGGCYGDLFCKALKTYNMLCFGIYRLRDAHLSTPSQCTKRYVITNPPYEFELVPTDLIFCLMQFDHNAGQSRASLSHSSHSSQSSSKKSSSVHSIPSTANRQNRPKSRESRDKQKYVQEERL

For the compound `O=C(O)c1ccc(Cl)c2c1[nH]c1c3ccc(C(F)(F)F)cc3oc12` [LDD175, 4-chloro-7-trifluoromethyl-10H-benzo[4,5]furo[3,2-b]indole-1-carboxylic acid], the “BP and heart rate changes following intravenous administration” value in the data set on BP and heart rate (10 mg/kg LDD175, intravenous) is on record as “did not cause significant changes”. In addition, the “adverse cardiovascular effects in in vivo animal experiments” value in the data set on BP and heart rate (rat, in vivo) is “no significant adverse cardiovascular effects”. Also, the peak current density came to 30.9±6.5 pA/pF at BKCa channel (0.1 μM, +60 mV, n=10); 45.1±8.2 pA/pF on BKCa channel (1 μM, +60 mV, n=10); 178.5±30.0 pA/pF at BKCa channel (10 μM, +60 mV, n=10); 257.3±48.3 pA/pF on BKCa channel (30 μM, +60 mV, n=10); 23.9±5.8 pA/pF on BKCa channel (30 μM, −40 mV); 265.5±53.4 pA/pF at BKCa channel (100 μM, +60 mV, n=10). At BKCa channel (30 μM), the “activation of outward rectifying K+ currents (whole-cell), increase vs. control” value is recorded as 952.1%. Besides, the “peak current density, fold vs. control” value at BKCa channel (30 μM, −40 mV) is 42.8 fold. Also, in data set [1] (LDD175 5 mg/kg and 10 mg/kg injection groups, 10 mg/kg more effective than 5 mg/kg), the intracavernosal pressure entry is “significantly increased”. Further, in data set [1] (TEA 30 mg/kg injected, after 10 minutes LDD175 10 mg/kg), the “effect of LDD175 on intracavernosal pressure after BKCa channel inhibitor” value is on record as “completely inhibited”. In addition, the “BP fluctuation and hemodynamical instability” value in data set [2] (during in vivo cavernous nerve stimulation) is listed as “not observed”. Further, the “area under curve (AUC) of ICP/ABP ratio” value in data set [2] (setting [4]) was 1444.4±133.3. The “maximal ICP” value in data set [2] (setting [4]) was found to be 57.8±6.6 mmHg. For the same compound, in data set [2] (setting [4]), the “maximal ICP/ABP ratio” value is 45.3±5.8%. The relaxation response is 41.0±4.9% in data set [3] (10^−4 M LDD175, denuded endothelium, n=10) and 45.9±6.2% in data set [3] (10^−4 M LDD175, intact endothelium, n=7). For the same compound, in data set [3] (10^−4 M LDD175, strips pre-treated with 100 nM IbTX for 30 minutes, n=7), the “relaxation response after IbTX pretreatment” value was 23.6±3.3%. Moreover, the “relaxation, % of the phenylephrine (PE)-induced contraction” value in data set [3] (10^−4 M) is 54.0±3.0% and 54.0±3.1%; in data set [3] (10^−5 M) it was 26.3±2.0%; in data set [3] (10^−6 M) it was 14.5±2.6%; in data set [3] (10^−7 M) it was 3.7±1.4%. For the same compound, the “% relaxation of the phenylephrine-induced contraction” value in data set [3] (10^−5 M alone, n=7) was determined as 32.7±3.8%. Besides, in the data set on aortic rings of rats, the “relaxation of aortic rings” value was “not relaxed”.
As to “iberiotoxin (QFTDVDCSVSKECWSVCKDLFGVDRGKCMGKKCRCYQ; UniProt P24663 1-37, looked up) [IbTX, reference compound]”, the “suppression of LDD175-activated K+ currents” value with BKCa channel (100 nM IbTX, n=4) is on record as 78.1%.
`CCCOc1ccc(S(=O)(=O)NCCC2CCCN2C)cc1-c1nc2c(CCC)nn(C)c2c(=O)[nH]1` (stereo not drawn) [udenafil, reference compound]: the “effect on maximal ICP, maximal ICP/ABP ratio and AUC of ICP/ABP ratio compared with 10 mg/kg LDD175” value in data set [2] (1 mg/kg udenafil, sub-maximal EFS) is “no difference”. The “relaxation, % of the phenylephrine (PE)-induced contraction” value in data set [3] (10^−5 M) is given as 67.1±1.7%; in data set [3] (10^−6 M), 34.5±3.9%. The “% relaxation of the phenylephrine-induced contraction” value in data set [3] (10^−6 M alone, n=7) is listed as 21.6±2.7%.
Turning to `O=c1[nH]c2cc(C(F)(F)F)ccc2n1-c1cc(C(F)(F)F)ccc1O` [NS1619, reference compound], the “activation of outward rectifying K+ currents (whole-cell), increase vs. control” value at BKCa channel (30 μM) is recorded as 880.0%. For the same compound, at BKCa channel (30 μM, −40 mV), the peak current density worked out at 1.5±0.6 pA/pF and the “peak current density, fold vs. control” value came to 1.3 fold.
`CC[N+](CC)(CC)CC` [TEA, tetraethylammonium, reference compound]: the “suppression of LDD175-activated K+ currents” value on BKCa channel turned out to be 78.2%.
In the case of `CCCc1nn(C)c2c(=O)[nH]c(-c3cc(S(=O)(=O)N4CCN(C)CC4)ccc3OCC)nc12` [sildenafil], the “maximal ICP/ABP ratio” value in data set [1] (1 mg/kg, n=6) is reported as 55.4±5.2; in data set [1] (5 mg/kg, n=7) it was 69.9±5.4.
